Data taken from ChEMBL document CHEMBL5137099, “Discovery of Novel cccDNA Reducers toward the Cure of Hepatitis B Virus Infection” (J Med Chem, 2022).
Values after ≈ are worked out from the molar mass of the structure shown. Each block holds one compound with its values, some of them ahead of it. Active and inactive are the calls of the source. No cut-off for these calls is given here.

Key:
Hepatitis B virus [1] = assay: Antiviral activity against HBV infected in human HepDES19 cells assessed as reduction in HBV cccDNA production by measuring inhibition of HBeAg secretion incubated for 5 days by ELISA; format: functional, organism-based; conditions: HepDES19, 120 h
[2] = Metabolic stability in mouse hepatocytes assessed as intrinsic clearance; format: ADME, cell-based, Hepatocyte; conditions: read-out: CLH
[3] = Cytotoxicity against human HepDES19 cells assessed as reduction in cell viability measured after 5 days by CCK-8 assay; format: toxicity, cell-based; conditions: time 5 day
Hepatitis B virus [4] = assay: Antiviral activity against HBV infected in human primary hepatocyte cells assessed as reduction in HBV cccDNA production by measuring inhibition of HBsAg secretion measured after 48 hrs by ELISA; format: functional, organism-based
[5] = Therapeutic index, ratio of CC50 for cytotoxicity against human HepDES19 cells assessed as reduction in cell viability measured after 5 days by CCK-8 assay to IC50 for antiviral activity against HBV infected in human HepDES19 cells assessed as reduction in HBV cccDNA production by measuring inhibition of HBeAg secretion incubated for 5 days by ELISA; format: toxicity, cell-based; conditions: time 5 day, read-out: Ratio CC50/IC50
[6] = Aqueous solubility of the compound; format: physicochemical; conditions: buffer
Hepatitis B virus [7] = assay: Antiviral activity against HBV infected in human HepDES19 cells assessed as reduction in HBV cccDNA production by measuring inhibition of HBeAg secretion at 0.3 to 10 uM by southern blot analysis; format: functional, organism-based; conditions: dose 0.3-10 µM
Hepatitis B virus [8] = assay: Antiviral activity against HBV infected in human HepG2 cells assessed as reduction in HBeAg secretion incubated for 5 days by counter screen assay; format: functional, organism-based; conditions: HepG2, 120 h
[9] = AUC (0 to infinity) in C3H/J mouse at 5 mg/kg, po by LC-MS/MS analysis; format: ADME, organism-based; design: time infinity, dose 5 mg/kg, route po; conditions: in vivo
[10] = Oral bioavailability in C57BL/6 mouse at 5 mg/kg by LC-MS/MS analysis; format: ADME, organism-based; conditions: in vivo
[11] = Dose normalized AUC (0 to 24 hrs) in C3H/J mouse at 5 mg/kg, po by LC-MS/MS analysis; format: ADME, organism-based; conditions: in vivo
[12] = Octanol-aqueous buffer distribution coefficient, log D of the compound at pH 7.4 by CAMDIS assay; format: physicochemical
[13] = Dose normalized Cmax in C3H/J mouse at 5 mg/kg, po by LC-MS/MS analysis; format: ADME, organism-based; conditions: in vivo
[14] = Tmax in C57BL/6 mouse at 30 mg/kg, po by LC-MS/MS analysis; format: ADME, organism-based; conditions: in vivo
[15] = AUC (0 to infinity) in C57BL/6 mouse at 5 mg/kg, po by LC-MS/MS analysis; format: ADME, organism-based; design: time infinity, dose 5 mg/kg, route po; conditions: in vivo
[16] = Dose normalized Cmax in C57BL/6 mouse at 5 mg/kg, po by LC-MS/MS analysis; format: ADME, organism-based; conditions: in vivo
[17] = Dose normalized AUC (0 to 24 hrs) in C57BL/6 mouse at 5 mg/kg, po by LC-MS/MS analysis; format: ADME, organism-based; conditions: in vivo
[18] = Cmax in C57BL/6 mouse at 30 mg/kg, po by LC-MS/MS analysis; format: ADME, organism-based; design: dose 30 mg/kg, route po; conditions: in vivo
[19] = Cmax in C57BL/6 mouse at 5 mg/kg, po by LC-MS/MS analysis; format: ADME, organism-based; design: dose 5 mg/kg, route po; conditions: in vivo
[20] = Dose normalized AUC (0 to 24 hrs) in C57BL/6 mouse at 2 mg/kg, iv by LC-MS/MS analysis; format: ADME, organism-based; conditions: in vivo
[21] = Dose normalized AUC (0 to 24 hrs) in C57BL/6 mouse at 30 mg/kg, po by LC-MS/MS analysis; format: ADME, organism-based; conditions: in vivo
[22] = Elimination half life in C57BL/6 mouse at 2 mg/kg, iv by LC-MS/MS analysis; format: ADME, organism-based; conditions: in vivo, read-out: beta t1/2 (converted)
[23] = Tmax in C57BL/6 mouse at 5 mg/kg, po by LC-MS/MS analysis; format: ADME, organism-based; conditions: in vivo
[24] = Volume of distribution at steady state in C57BL/6 mouse at 2 mg/kg, iv by LC-MS/MS analysis; format: ADME, organism-based; conditions: in vivo, read-out: Vdss
[25] = AUC (0 to infinity) in C57BL/6 mouse at 2 mg/kg, iv by LC-MS/MS analysis; format: ADME, organism-based; design: time infinity, dose 2 mg/kg, route iv; conditions: in vivo
[26] = Elimination half life in C57BL/6 mouse at 30 mg/kg, po by LC-MS/MS analysis; format: ADME, organism-based; conditions: in vivo, read-out: beta t1/2 (converted)
[27] = Elimination half life in C57BL/6 mouse at 5 mg/kg, po by LC-MS/MS analysis; format: ADME, organism-based; conditions: in vivo, read-out: beta t1/2 (converted)
[28] = Permeability of the compound by PAMPA analysis; format: ADME; conditions: read-out: permeability
[29] = Metabolic stability in human microsomes assessed as clearance; format: ADME, Microsome; conditions: read-out: CLH
[30] = AUC (0 to infinity) in C57BL/6 mouse at 30 mg/kg, po by LC-MS/MS analysis; format: ADME, organism-based; design: time infinity, dose 30 mg/kg, route po; conditions: in vivo
[31] = Tmax in C3H/J mouse plasma at 5 mg/kg, po by LC-MS/MS analysis; format: ADME, organism-based
[32] = Cmax in C3H/J mouse plasma at 5 mg/kg, po by LC-MS/MS analysis; format: ADME, organism-based; design: dose 5 mg/kg, route po
[33] = Elimination half life in C3H/J mouse at 5 mg/kg, po by LC-MS/MS analysis; format: ADME, organism-based; conditions: in vivo, read-out: beta t1/2 (converted)
[34] = Clearance in C57BL/6 mouse at 2 mg/kg, iv by LC-MS/MS analysis; format: ADME, organism-based; conditions: in vivo

IC50 (Hepatitis B virus [1]): 0.71 µM
CLint scaled [2]: 5.2 L/h/kg
solubility [6]: < 0.001 mg/mL
Structure (SMILES): O=C(Nc1ccc2c(=O)c3cccc(F)c3oc2c1)c1ccccc1F
CC50 at 120 h [3]: > 100 µM
IC50 (Hepatitis B virus [4]): 5.45 µM
selectivity ratio at 120 h [5]: > 141
Activity (Hepatitis B virus [7]): Active
IC50 (Hepatitis B virus [8]): > 50 µM

AUC(0-inf) [9]: 0.761 µg·h/mL
bioavailability [10]: 56%
AUC/dose [11]: 171 (ng·h/mL)/(mg/kg)
IC50 (Hepatitis B virus [1]): 1.74 µM
logD [12]: 1.12
Cmax/dose [13]: 0.116 µg/mL
Tmax [14]: 0.5 h
CLint scaled [2]: 1.94 L/h/kg
AUC(0-inf) [15]: 2.68 µg·h/mL
Cmax/dose [16]: 0.331 µg/mL
AUC/dose [17]: 500 ng·h/mL
Cmax [18]: 17.3 µg/mL
Cmax [19]: 1.65 µg/mL
AUC/dose [20]: 937 (ng·h/mL)/(mg/kg)
AUC/dose [21]: 151 ng·h/mL
half-life [22]: 2.1 h
Tmax [23]: 0.5 h
Vd [24]: 0.65 L/kg
AUC(0-inf) [25]: 1.9 µg·h/mL
half-life [26]: 4.26 h
half-life [27]: 10.2 h
Papp [28]: 22.7 nm/s
CLint scaled [29]: 0.372 L/h/kg
AUC(0-inf) [30]: 31.4 µg·h/mL
Tmax [31]: 0.5 h
Cmax [32]: 0.58 µg/mL
half-life [33]: 1.11 h
solubility [6]: < 0.435 mg/mL
clearance [34]: 1.06 L/h/kg
Structure (SMILES): O=C(O)C1CCN(c2ccc3c(=O)c4cccc(Cl)c4oc3c2)C1 (racemic)
IC50 (Hepatitis B virus [4]): 1.34 µM
IC50 (Hepatitis B virus [8]): > 50 µM

IC50 (Hepatitis B virus [1]): 0.75 µM
logD [12]: 1.5
Papp [28]: 13.4 nm/s
solubility [6]: < 0.465 mg/mL
Structure (SMILES): Cc1cc2c(=O)c3cccc(Cl)c3oc2cc1N1CCC(C(=O)O)C1 (centres undefined)
IC50 (Hepatitis B virus [4]): 3 µM
IC50 (Hepatitis B virus [8]): > 50 µM

IC50 (Hepatitis B virus [1]): 0.65 µM
logD [12]: 1.42
CLint scaled [2]: 1.22 L/h/kg
Papp [28]: 11.9 nm/s
solubility [6]: 0.029 mg/mL (≈ 76.7 µM)
Structure (SMILES): O=C(O)C1CCN(c2ccc3c(=O)c4c(Cl)ccc(Cl)c4oc3c2)C1 (single isomer, unassigned)
IC50 (Hepatitis B virus [4]): 2.61 µM
IC50 (Hepatitis B virus [8]): > 50 µM

IC50 (Hepatitis B virus [1]): 0.25 µM
logD [12]: 1.42
CLint scaled [2]: 0.714 L/h/kg
Papp [28]: 11.8 nm/s
solubility [6]: 0.1 mg/mL (≈ 243 µM)
Structure (SMILES): O=C(O)C1CCN(c2ccc3c(=O)c4c(C(F)(F)F)ccc(Cl)c4oc3c2)C1 (centres undefined)
IC50 (Hepatitis B virus [4]): 1.21 µM
IC50 (Hepatitis B virus [8]): > 50 µM

IC50 (Hepatitis B virus [1]): 1.92 µM
logD [12]: 1.09
Papp [28]: 30.2 nm/s
solubility [6]: > 0.43 mg/mL
Structure (SMILES): O=C(O)[C@H]1CCN(c2ccc3c(=O)c4cccc(Cl)c4oc3c2)C1
IC50 (Hepatitis B virus [4]): 1.58 µM
IC50 (Hepatitis B virus [8]): > 50 µM

IC50 (Hepatitis B virus [1]): 2.36 µM
logD [12]: 1.44
CLint scaled [2]: 2.09 L/h/kg
Papp [28]: 17.2 nm/s
solubility [6]: 0.032 mg/mL (≈ 84.6 µM)
Structure (SMILES): O=C(O)C1CCN(c2ccc3c(=O)c4c(Cl)ccc(Cl)c4oc3c2)C1 (centres undefined)
IC50 (Hepatitis B virus [4]): 1.16 µM
IC50 (Hepatitis B virus [8]): > 50 µM

IC50 (Hepatitis B virus [1]): 1.1 µM
Papp [28]: 8 nm/s
solubility [6]: > 0.443 mg/mL
Structure (SMILES): N#Cc1ccc(Cl)c2oc3cc(N4CCC(C(=O)O)C4)ccc3c(=O)c12 (centres undefined)
IC50 (Hepatitis B virus [4]): 12.4 µM
IC50 (Hepatitis B virus [8]): > 50 µM

IC50 (Hepatitis B virus [1]): 1.46 µM
logD [12]: < -0.5
CLint scaled [2]: 2.3 L/h/kg
Papp [28]: 18.3 nm/s
solubility [6]: 0.014 mg/mL (≈ 38.7 µM)
Structure (SMILES): O=C(O)C1CCN(c2ccc3c(=O)c4c(F)ccc(Cl)c4oc3c2)C1 (centres undefined)
IC50 (Hepatitis B virus [4]): 8.48 µM
IC50 (Hepatitis B virus [8]): > 50 µM

IC50 (Hepatitis B virus [1]): 1.89 µM
Papp [28]: 2.2 nm/s
solubility [6]: < 0.001 mg/mL
Structure (SMILES): O=C(Nc1ccc2c(=O)c3cccc(F)c3oc2c1)c1ccccc1
CC50 at 120 h [3]: > 100 µM
selectivity ratio at 120 h [5]: > 53
IC50 (Hepatitis B virus [8]): > 50 µM

IC50 (Hepatitis B virus [1]): 10.9 µM
solubility [6]: < 0.001 mg/mL
Structure (SMILES): O=C(Nc1ccc2c(=O)c3cccc(Cl)c3oc2c1)c1ccccc1[N+](=O)[O-]
CC50 at 120 h [3]: > 100 µM
selectivity ratio at 120 h [5]: > 9
IC50 (Hepatitis B virus [8]): > 50 µM

IC50 (Hepatitis B virus [1]): 18.3 µM
solubility [6]: < 0.001 mg/mL
Structure (SMILES): CN(C(=O)c1ccncc1)c1ccc2c(=O)c3cccc(F)c3oc2c1
CC50 at 120 h [3]: > 100 µM
selectivity ratio at 120 h [5]: > 5
IC50 (Hepatitis B virus [8]): > 50 µM

IC50 (Hepatitis B virus [1]): 2.43 µM
solubility [6]: < 0.001 mg/mL
Structure (SMILES): O=C(Nc1ccc2c(=O)c3cccc(F)c3oc2c1)c1ccncc1F
CC50 at 120 h [3]: > 100 µM
selectivity ratio at 120 h [5]: > 20.6
IC50 (Hepatitis B virus [8]): > 50 µM

IC50 (Hepatitis B virus [1]): 1.17 µM
logD [12]: 1.39
Structure (SMILES): O=C(O)C1CCN(c2cc3oc4c(Cl)cccc4c(=O)c3cc2F)C1 (centres undefined)
IC50 (Hepatitis B virus [4]): 7.74 µM
IC50 (Hepatitis B virus [8]): > 50 µM
